Reference: US8778953B2, “Inhibitors of P38 map kinase” (Chroma Therapeutics Ltd., priority 2008, dated 2014)
Where two headings read alike, the source gives them in different places.

Experiments:
[1] = target: T1, p38 MAP Kinase a (Homo sapiens, UniProt Q16539); experiment: p38 MAP Kinase activity, radiometric filter-binding assay (Upstate); format: biochemical; conditions: IC50 range; read-out: Inhibitor activity versus p38 MAPKa
T1 construct: purchased Upstate (Dundee UK)
Description: The ability of compounds to inhibit p38 MAP a Kinase activity was measured in an assay performed by Upstate (Dundee UK). In a final reaction volume of 25 μL, p38 MAP Kinase a (5-10 mU) is incubated with 25 mM Tris pH 7.5, 0.002 mMEGTA, 0.33 mg/mL myelin basic protein, 10 mM MgAcetate and [g-33p-ATP] (specific activity approx. 500 cpm/pmol, concentration as required). The reaction is initiated by the addition of the MgATP mix. After incubation for 40 minutes at room temperature, the reaction is stopped by the addition of 5 μL of a 3% phosphoric acid solution. 10 μL of the reaction is then spotted onto a P30 filtermat and washed three times for 5 minutes in 75 mM phosphoric acid and once in methanol prior to drying and scintillation counting.
Duplicate data points are generated from a 1/3 log dilution series of a stock solution in DMSO. Nine dilutions steps are made from a top concentration of 10 μM and a ‘no compound’ blank is included. The standard radiometric filter-binding assay is performed at an ATP concentration at, or close to, the Km. Data from scintillation counts are collected and subjected to free-fit analysis by Prism software. From the curve generated, the concentration giving 50% inhibition is determined and reported.

[2] = tested on: THP-1 TNFα release; experiment: LPS-stimulation of THP-1 cells, TNF-α release (ELISA); format: cell-based; conditions: Homo sapiens; LPS-stimulated THP-1 cells, IC50 range; read-out: Inhibitor activity versus THP-1 TNFα release
Description: THP-1 cells were plated in 100 μl at a density of 4×10^4 cells/well in V-bottomed 96 well tissue culture treated plates and incubated at 37° C. in 5% CO2 for 16 hours. 2 hours after the addition of the inhibitor in 100 μl of tissue culture media, the cells were stimulated with LPS (E. coli strain 005:B5, Sigma) at a final concentration of 1 μg/ml and incubated at 37° C. in 5% CO2 for 6 hours. TNF-α levels were measured from cell-free supernatants by sandwich ELISA (R&D Systems #QTA00B).

[3] = tested on: human whole blood TNFα release; experiment: LPS-stimulation of human whole blood, TNF-α release (ELISA); format: cell-based; conditions: LPS-stimulated human whole blood, IC50 range; read-out: Inhibitor activity versus human whole blood TNFα release
Description: Whole blood was taken by venous puncture using heparinised vacutainers (Becton Dickinson) and diluted in an equal volume of RPMI1640 tissue culture media (Sigma). 100 μl was plated in V-bottomed 96 well tissue culture treated plates. 2 hours after the addition of the inhibitor in 100 μl of RPMI1640 media, the blood was stimulated with LPS (E coli strain 005:B5, Sigma) at a final concentration of 100 ng/ml and incubated at 37° C. in 5% CO2 for 6 hours. TNF-α levels were measured from cell-free supernatants by sandwich ELISA (R&D Systems #QTA00B).

[4] = tested on: phosphorylation of MAPKAP-2 in U937 cells; experiment: p38 MAP kinase cellular assay: inhibition of phosphorylation of MAPKAP-2 in U937 cells; format: cell-based; conditions: for IC50: Homo sapiens, U-937; for Ratio cell IC50s to enzyme IC50: U937 cell IC50 / P38 enzyme IC50
Description: (§1) U937 or HUT78 cells were plated in RPMI 1640, and were incubated at 37° C., 5% CO2 for 18 hours. 10 mM stocks of compounds were diluted media/0.1% DMSO to give a log or semi-log dilution series. The wells for ‘no treatment’ and ‘anisomycin’ were treated with 0.1% DMSO only. The cells were incubated at 37° C., 5% CO2 for a further 4 hours. Anisomycin was added to all wells except ‘no treatment’ at a final concentration of 10 μM. The cells were incubated at 37° C., 5% CO2 for 30 minutes before harvest. Plates were stood on ice whilst harvesting, and all following steps were carried out at 4° C. The cells were pelleted at 1000 rpm for 10 minutes at 4° C., the media aspirated, and the pellet washed with cold PBS. The pellets were lysed in 120 μl of SDS lysis buffer (62.5 mM Tris, pH 6.8, 2% SDS, 10% glycerol, 50 mM DTT, with protease inhibitors and phosphatase inhibitors added according to the manufacturer's recommendations). After 30 minutes on ice, the samples were sonicated for 5 seconds before centrifugation at 13,000 rpm 4° C. for 10 minutes to remove cell debris. 10 μl of the resulting gel samples were loaded per lane on NOVEX 4-12% Bis-Tris MOPS gels. Membranes from western transfer of gels were blotted with anti-phospho MAPKAP2, anti-phospho HSP27 and anti GAPDH according to the manufacturer's instructions. Signal was visualised using HRP-linked anti-rabbit or anti-mouse antibodies, ECL reagent and ECL film. IC50 values for the various compounds were visualised from the resulting photographic images, using both band-shift and signal intensity.

[5] = tested on: phosphorylation of MAPKAP-2 in HUT 78 cells; experiment: p38 MAP kinase cellular assay: inhibition of phosphorylation of MAPKAP-2 in HUT 78 cells; format: cell-based; conditions: for Ratio IC50s in HUT 78 to U937 cells: HUT 78 IC50 / U937 IC50; for IC50: Homo sapiens, HuT78, Table 3, HUT 78 non-monocytic cell line
Description: as §1

[6] = tested on: U937 cells; experiment: Cell accumulation of the acid in U937 cells; format: cell-based; conditions: U937 monocytic versus non-monocytic cell line
[7] = Table 2, U937 cells, read-out: Inhibition of phosphorylation of MAPKAP-2 in U937 cells (IC50)
[8] = Table 3, U937 monocyte cell line, read-out: Inhibition of phosphorylation of MAPKAP-2 in U937 cells (IC50, nM) (monocyte cell line)

T1 sequence (Q16539 whole entry): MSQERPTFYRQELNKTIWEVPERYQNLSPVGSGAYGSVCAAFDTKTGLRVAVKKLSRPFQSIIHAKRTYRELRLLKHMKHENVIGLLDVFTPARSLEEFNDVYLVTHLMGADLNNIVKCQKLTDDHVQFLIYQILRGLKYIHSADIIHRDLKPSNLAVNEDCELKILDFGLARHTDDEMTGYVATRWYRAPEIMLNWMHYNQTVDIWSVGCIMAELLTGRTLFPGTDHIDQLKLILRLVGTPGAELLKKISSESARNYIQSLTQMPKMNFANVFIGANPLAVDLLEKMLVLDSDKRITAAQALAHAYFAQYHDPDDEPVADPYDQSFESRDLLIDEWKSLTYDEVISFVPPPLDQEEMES

Structure (SMILES)	IC50 [1] [nM]	IC50 [2] [nM]	IC50 [3] [nM]	further results
CC(C)(NCCc1ccc(-n2c(N)c(C(=O)c3ccc(F)cc3F)ccc2=O)cc1)C(=O)OC1Cc2ccccc2C1 [Example 7, 2,3-dihydro-1H-inden-2-yl N-(2-{4-[6-amino-5-(2,4-difluorobenzoyl)-2-oxopyridin-1(2H)-yl]phenyl}ethyl)-2-methylalaninate]	100 to 1000	< 100	> 1000	
Nc1c(C(=O)c2ccc(F)cc2F)ccc(=O)n1-c1ccc(CCNC2(C(=O)OC3CCCC3)CCCC2)cc1 [Example 4, Cyclopentyl 1-[(2-{4-[6-amino-5-(2,4-difluorobenzoyl)-2-oxopyridin-1(2H)-yl]phenyl}ethyl)amino]cyclopentanecarboxylate]	< 100	< 100	> 1000	
CC[C@](C)(NCCc1ccc(-n2c(N)c(C(=O)c3ccc(F)cc3F)ccc2=O)cc1)C(=O)OC(C)(C)C [Example 6, tert-butyl N-(2-{4-[6-amino-5-(2,4-difluorobenzoyl)-2-oxopyridin-1(2H)-yl]phenyl}ethyl)-L-isovalinate]	100 to 1000	100 to 1000		
CC(C)(NCCc1cc(F)c(-n2c(N)c(C(=O)c3ccc(F)cc3F)ccc2=O)c(F)c1)C(=O)OC1CCCC1 [Example 2, Cyclopentyl N-(2-{4-[6-amino-5-(2,4-difluorobenzoyl)-2-oxopyridin-1(2H)-yl]-3,5-difluorophenyl}ethyl)-2-methylalaninate]	< 100	< 100	< 100	
CC(C)(NCCc1ccc(-n2c(N)c(C(=O)c3ccc(F)cc3F)ccc2=O)cc1)C(=O)OC1CC2CCC1C2 (centres unmarked) [Example 8, bicyclo[2.2.1]hept-2-yl N-(2-{4-[6-amino-5-(2,4-difluorobenzoyl)-2-oxopyridin-1(2H)-yl]phenyl}ethyl)-2-methylalaninate]		< 100	> 1000	
CC(C)(NCCCOc1cc(F)c(-n2c(N)c(C(=O)c3ccc(F)cc3F)ccc2=O)c(F)c1)C(=O)OC1CCCC1 [Example 9, Cyclopentyl N-(3-{4-[6-amino-5-(2,4-difluorobenzoyl)-2-oxopyridin-1(2H)-yl]-3,5-difluorophenoxy}propyl)-2-methylalaninate]	< 100	< 100	100 to 1000	
Nc1c(C(=O)c2ccc(F)cc2F)ccc(=O)n1-c1ccccc1 [Parent Compound I, reference compound]				IC50 [4, 7]: 300 nM; IC50 [4, 8]: 300 nM; Ratio cell IC50s to enzyme IC50 [4]: 6; Ratio IC50s in HUT 78 to U937 cells [5]: 1.5; Ratio IC50s in HUT 78 to U937 cells ([5]; listed as compound I): equipotent; IC50 [5]: 450 nM
CC(C)(NC(=O)Cc1ccc(-n2c(N)c(C(=O)c3ccc(F)cc3F)ccc2=O)cc1)C(=O)OC1CCCC1 [Example 3, Cyclopentyl N-({4-[6-amino-5-(2,4-difluorobenzoyl)-2-oxopyridin-1(2H)-yl]phenyl}acetyl)-2-methylalaninate]	< 100	100 to 1000	> 1000	
CC[C@](C)(NCCc1ccc(-n2c(N)c(C(=O)c3ccc(F)cc3F)ccc2=O)cc1)C(=O)OC1CCCC1 [Example 5, Cyclopentyl N-(2-{4-[6-amino-5-(2,4-difluorobenzoyl)-2-oxopyridin-1(2H)-yl]phenyl}ethyl)-L-isovalinate]	100 to 1000	< 100	> 1000	
CC(C)(NCCc1ccc(-n2c(N)c(C(=O)c3ccc(F)cc3F)ccc2=O)cc1)C(=O)OC1CCCC1 [Example 1, Cyclopentyl N-(2-{4-[6-amino-5-(2,4-difluorobenzoyl)-2-oxopyridin-1(2H)-yl]phenyl}ethyl)-2-methylalaninate]	< 100	< 100	100 to 1000	IC50 [4, 7]: 10 nM; IC50 [4, 8]: 10 nM; Ratio cell IC50s to enzyme IC50 [4]: 0.2; Potency in cells relative to the parent compound lacking the esterase motif ([4]; U937 cells): 30 times; Ratio IC50s in HUT 78 to U937 cells [5]: 100; IC50 [5]: 1000 nM; Accumulation of the acid in cells (in words) [6]: only accumulates in the monocytic cell line

The next lines start with results.

IC50 [1] [nM]	IC50 [2] [nM]	IC50 [3] [nM]	Structure (SMILES)	further results
< 100			CC(C)(NCCc1cc(F)c(-n2c(N)c(C(=O)c3ccc(F)cc3F)ccc2=O)c(F)c1)C(=O)O [Example 12, N-(2-{4-[6-amino-5-(2,4-difluorobenzoyl)-2-oxopyridin-1(2H)-yl]-3,5-difluorophenyl}ethyl)-2-methylalanine]	
< 100			CC(C)(NCCc1ccc(-n2c(N)c(C(=O)c3ccc(F)cc3F)ccc2=O)cc1)C(=O)O [Example 11, N-(2-{4-[6-amino-5-(2,4-difluorobenzoyl)-2-oxopyridin-1(2H)yl]phenyl}ethyl)-2-methylalanine]	
< 100			CC[C@](C)(NCCc1ccc(-n2c(N)c(C(=O)c3ccc(F)cc3F)ccc2=O)cc1)C(=O)O [Example 14, N-(2-{4-[6-amino-5-(2,4-difluorobenzoyl)-2-oxopyridin-1(2H)-yl]phenyl}ethyl)-L-isovaline]	
< 100	< 100	> 1000	CC(C)(C)OC(=O)C(C)(C)NCCCOc1cc(F)c(-n2c(N)c(C(=O)c3ccc(F)cc3F)ccc2=O)c(F)c1 [Example 10, tert-butyl N-(3-{4-[6-amino-5-(2,4-difluorobenzoyl)-2-oxopyridin-1(2H)-yl]-3,5-difluorophenoxy}propyl)-2-methylalaninate]	
100 to 1000			CC(C)(NC(=O)Cc1ccc(-n2c(N)c(C(=O)c3ccc(F)cc3F)ccc2=O)cc1)C(=O)O [Example 13]	
100 to 1000			Nc1c(C(=O)c2ccc(F)cc2F)ccc(=O)n1-c1ccc(CCNC2(C(=O)O)CCCC2)cc1 [Example 15, 1-[(2-{4-[6-amino-5-(2,4-difluorobenzoyl)-2-oxopyridin-1(2H)-yl]phenyl}ethyl)amino]cyclopentanecarboxylic acid]	
< 100			CC(C)(NCCCOc1cc(F)c(-n2c(N)c(C(=O)c3ccc(F)cc3F)ccc2=O)c(F)c1)C(=O)O [Example 16, N-(3-{4-[6-amino-5-(2,4-difluorobenzoyl)-2-oxopyridin-1(2H)-yl]-3,5-difluorophenoxy}propyl)-2-methylalanine]	
